Experimental data from US20190119213A1, “OXO-PYRIDINE-DERIVATIVES AS FACTOR XIA INHIBITORS FOR THE TREATMENT OF THROMBOSIS” (BAYER PHARMA AKTIENGESELLSCHAFT, priority 2015, published 2019).

Experiments:
human factor XIa = target: T1, human factor XIa (Homo sapiens, UniProt P03951); test: Measurement of FXIa inhibition (fluorogenic peptide substrate); format: biochemical; conditions: factor XIa from Kordia 0.45 nM; substrate Boc-Glu(OBzl)-Ala-Arg-AMC; 30 min at 22° C.
T1 construct: purchased Kordia
Procedure: (§1) The factor XIa inhibition of the inventive substances is determined using a biochemical test system which utilizes the reaction of a peptidic factor XIa substrate to determine the enzymatic activity of human factor XIa. Here, factor XIa cleaves from the peptic factor XIa substrate the C-terminal aminomethylcoumarin (AMC), the fluorescence of which is measured. The determinations are carried out in microtitre plates.
Test substances are dissolved in dimethyl sulphoxide and serially diluted in dimethyl sulphoxide (3000 μM to 0.0078 μM; resulting final concentrations in the test: 50 μM to 0.00013 μM). In each case 1 μl of the diluted substance solutions is placed into the wells of white microtitre plates from Greiner (384 wells). 20 μl of assay buffer (50 mM of Tris/HCl pH 7.4; 100 mM of sodium chloride; 5 mM of calcium chloride; 0.1% of bovine serum albumin) and 20 μl of factor XIa from Kordia (0.45 nM in assay buffer) are then added successively. After 15 min of incubation, the enzyme reaction is started by addition of 20 μl of the factor XIa substrate Boc-Glu(OBzl)-Ala-Arg-AMC dissolved in assay buffer (10 μM in assay buffer) from Bachem, the mixture is incubated at room temperature (22° C.) for 30 min and fluorescence is then measured (excitation: 360 nm, emission: 460 nm). The measured emissions of the test batches with test substance are compared to those of control batches without test substance (only dimethyl sulphoxide instead of test substance in dimethyl sulphoxide), and IC50 values are calculated from the concentration/activity relationships.

human plasma kallikrein = target: T2, human plasma kallikrein (Homo sapiens, UniProt P03952); test: Determination of the plasma kallikrein activity (fluorogenic peptide substrate); format: biochemical; conditions: plasma kallikrein from Kordia 0.6 nM; substrate H-Pro-Phe-Arg-AMC; 30 min at 22° C.
T2 construct: purchased Kordia
Procedure: as §1, with “To determine the plasma kallikrein” for “The factor XIa”, “the” for “the inventive”, “according to the invention,” for “is determined using”, “system is used” for “system”, “plasma kallikrein” for “factor XIa”, “plasma kallikrein.” for “factor XIa.”
Test substances are dissolved in dimethyl sulphoxide and serially diluted in dimethyl sulphoxide (3000 μM to 0.0078 μM; resulting final concentrations in the test: 50 μM to […] each case 1 μl of the diluted substance solutions is placed into the wells of white microtitre plates from Greiner (384 wells). 20 μl of assay buffer (50 mM Tris/HCl pH 7.4; 100 mM sodium chloride solution; 5 mM of calcium chloride solution; 0.1% of bovine serum albumin) and 20 μl of plasma kallikrein from Kordia (0.6 nM in assay buffer) are then added successively. After 15 min of incubation, the enzyme reaction is started by addition of 20 μl of the substrate H-Pro-Phe-Arg-AMC dissolved in assay buffer (10 μM in assay buffer) from Bachem, the mixture is incubated at room temperature (22° C.) for 30 min and fluorescence is then measured (excitation: 360 nm, emission: 460 nm). The measured emissions of the test batches with test substance are compared to those of control batches without test substance (only dimethyl sulphoxide instead of test substance in dimethyl sulphoxide), and IC50 values are calculated from the concentration/activity relationships.

T1 sequence (P03951 388-625 limits assumed): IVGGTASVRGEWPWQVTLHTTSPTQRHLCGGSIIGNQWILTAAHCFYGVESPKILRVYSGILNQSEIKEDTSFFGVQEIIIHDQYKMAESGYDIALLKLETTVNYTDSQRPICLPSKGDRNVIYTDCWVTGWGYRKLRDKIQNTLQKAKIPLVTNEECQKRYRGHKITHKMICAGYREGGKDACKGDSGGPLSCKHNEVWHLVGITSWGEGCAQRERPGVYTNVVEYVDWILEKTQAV
T1 sequence (P03951 19-387 partner limits assumed): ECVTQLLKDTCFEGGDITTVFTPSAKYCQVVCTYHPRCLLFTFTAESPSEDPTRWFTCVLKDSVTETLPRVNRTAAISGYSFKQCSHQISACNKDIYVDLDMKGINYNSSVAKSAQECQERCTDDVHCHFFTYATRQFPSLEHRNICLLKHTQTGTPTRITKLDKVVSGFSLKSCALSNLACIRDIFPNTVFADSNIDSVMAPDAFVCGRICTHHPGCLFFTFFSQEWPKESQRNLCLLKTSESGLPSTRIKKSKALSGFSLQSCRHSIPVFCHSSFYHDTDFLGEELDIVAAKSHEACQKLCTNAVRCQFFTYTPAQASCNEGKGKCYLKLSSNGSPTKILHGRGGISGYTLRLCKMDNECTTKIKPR
T2 sequence (P03952 391-638 limits assumed): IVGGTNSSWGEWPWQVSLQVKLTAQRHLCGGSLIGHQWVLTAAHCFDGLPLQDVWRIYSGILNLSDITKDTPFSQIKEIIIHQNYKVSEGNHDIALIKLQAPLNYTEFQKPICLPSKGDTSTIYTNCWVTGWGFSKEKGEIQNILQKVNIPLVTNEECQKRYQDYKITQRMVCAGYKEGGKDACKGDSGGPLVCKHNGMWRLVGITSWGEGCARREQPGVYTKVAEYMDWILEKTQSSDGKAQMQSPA
T2 sequence (P03952 20-390 partner limits assumed): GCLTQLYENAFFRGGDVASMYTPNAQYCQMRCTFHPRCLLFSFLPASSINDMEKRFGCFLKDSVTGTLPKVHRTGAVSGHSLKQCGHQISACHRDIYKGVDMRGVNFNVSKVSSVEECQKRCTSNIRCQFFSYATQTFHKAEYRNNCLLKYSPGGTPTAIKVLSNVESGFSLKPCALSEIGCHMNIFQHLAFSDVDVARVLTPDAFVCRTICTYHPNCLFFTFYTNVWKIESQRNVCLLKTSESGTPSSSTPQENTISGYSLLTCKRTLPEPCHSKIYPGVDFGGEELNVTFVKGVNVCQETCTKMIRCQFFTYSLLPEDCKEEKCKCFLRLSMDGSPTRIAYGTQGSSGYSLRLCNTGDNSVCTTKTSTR

| SMILES | IC50 (human factor XIa) | IC50 (human plasma kallikrein) |
| --- | --- | --- |
| COc1cn(C(CCOC(C)C)C(=O)Nc2ccc(C(=O)O)cc2)c(=O)cc1-c1cc(Cl)ccc1C#N (racemic) [Example 1, 4-({2-[4-(5-Chloro-2-cyanophenyl)-5-methoxy-2-oxopyridin-1(2H)-yl]-4-isopropoxybutanoyl}-amino)benzoic acid (racemate)] | 1.2 nM | 5.6 nM |
| COc1cn(C(CCOC2CCC2)C(=O)Nc2ccc(C(=O)O)cc2)c(=O)cc1-c1cc(Cl)ccc1C#N (racemic) [Example 3, 4-({2-[4-(5-Chloro-2-cyanophenyl)-5-methoxy-2-oxopyridin-1(2H)-yl]-4-(cyclobutyloxy)butanoyl}amino)benzoic acid (racemate)] | 0.6 nM | 2.6 nM |
| COc1cn(C(CCOC(C)(C)C)C(=O)Nc2ccc(C(=O)O)cc2)c(=O)cc1-c1cc(Cl)ccc1C#N (racemic) [Example 5, 4-({4-tert-Butoxy-2-[4-(5-chloro-2-cyanophenyl)-5-methoxy-2-oxopyridin-1(2H)-yl]butanoyl}amino)benzoic acid (racemate)] | 0.7 nM | 3.9 nM |
| COc1cn(C(CCOC(C)(C)C)C(=O)Nc2ccc(C(=O)O)cc2)c(=O)cc1-c1cc(Cl)ccc1OC(F)F (racemic) [Example 7, 4-[(4-tert-Butoxy-2-{4-[5-chloro-2-(difluoromethoxy)phenyl]-5-methoxy-2-oxopyridin-1(2H)-yl}butanoyl)amino]benzoic acid (racemate)] | 2.9 nM | 38 nM |
| COc1cn(C(CCOC2(C)CCC2)C(=O)Nc2ccc(C(=O)O)cc2)c(=O)cc1-c1cc(Cl)ccc1C#N (racemic) [Example 9, 4-({2-[4-(5-Chloro-2-cyanophenyl)-5-methoxy-2-oxopyridin-1(2H)-yl]-4-[(1-methylcyclobutyl)oxy]butanoyl}amino)benzoic acid (racemate)] | 1 nM | 6.5 nM |
| COc1cn(C(CCOC2(C)CCC2)C(=O)Nc2ccc(C(=O)O)cc2)c(=O)cc1-c1cc(Cl)ccc1OC(F)F (racemic) [Example 11, 4-[(2-{4-[5-Chloro-2-(difluoromethoxy)phenyl]-5-methoxy-2-oxopyridin-1(2H)-yl}-4-[(1-methylcyclobutyl)oxy]butanoyl)amino]benzoic acid (racemate)] | 2.2 nM | 45 nM |
| COc1cn([C@@H](CCOC(C)C)C(=O)Nc2ccc(C(=O)O)cc2)c(=O)cc1-c1cc(Cl)ccc1C#N (single isomer, unassigned; enantiomer 2) [Example 2] | 0.9 nM | 4.8 nM |
| COc1cn([C@@H](CCOC2CCC2)C(=O)Nc2ccc(C(=O)O)cc2)c(=O)cc1-c1cc(Cl)ccc1C#N (single isomer, unassigned; enantiomer 2) [Example 4] | 0.4 nM | 1.4 nM |
| COc1cn([C@@H](CCOC(C)(C)C)C(=O)Nc2ccc(C(=O)O)cc2)c(=O)cc1-c1cc(Cl)ccc1C#N (single isomer, unassigned; enantiomer 2) [Example 6] | 0.3 nM | 2.2 nM |
| COc1cn([C@@H](CCOC(C)(C)C)C(=O)Nc2ccc(C(=O)O)cc2)c(=O)cc1-c1cc(Cl)ccc1OC(F)F (single isomer, unassigned; enantiomer 2) [Example 8] | 1.5 nM | 29 nM |
| COc1cn([C@@H](CCOC2(C)CCC2)C(=O)Nc2ccc(C(=O)O)cc2)c(=O)cc1-c1cc(Cl)ccc1C#N (single isomer, unassigned; enantiomer 2) [Example 10] | 0.4 nM | 2.4 nM |
| COc1cn([C@@H](CCOC2(C)CCC2)C(=O)Nc2ccc(C(=O)O)cc2)c(=O)cc1-c1cc(Cl)ccc1OC(F)F (single isomer, unassigned; enantiomer 2) [Example 12] | 1.5 nM | 27 nM |
